{"source": "ChEMBL document CHEMBL2040746", "about": "“Synthesis and evaluation of novel podophyllotoxin analogs” (Bioorg Med Chem Lett, 2012)", "type_in_all_cases": "functional, cell-based", "key": {"A549": {"tested_on": "A549", "assay": "Cytotoxicity against human A549 cells by SRB assay"}, "DU-145": {"tested_on": "DU-145", "assay": "Cytotoxicity against human DU145 cells by SRB assay"}, "KB": {"tested_on": "KB", "assay": "Cytotoxicity against human KB cells by SRB assay"}, "[1]": {"assay": "Cytotoxicity against human KBVIN cells by SRB assay"}}}
{"smiles": "COC(=O)[C@H]1C(/C=C/C(=O)c2ccc([N+](=O)[O-])cc2)=Cc2cc(OC)c(OC)cc2[C@H]1c1cc(OC)c(OC)c(OC)c1", "values": [{"measurement": "IC50", "setting": "A549", "value": 16.8, "unit": "µg/mL"}, {"measurement": "IC50", "setting": "DU-145", "value": 20.3, "unit": "µg/mL"}, {"measurement": "IC50", "setting": "KB", "value": 16, "unit": "µg/mL"}, {"measurement": "IC50", "setting": "[1]", "value": 23, "unit": "µg/mL"}]}
{"smiles": "COC(=O)[C@H]1C(/C=C/C(=O)c2ccc(O)cc2)=Cc2cc(OC)c(OC)cc2[C@H]1c1cc(OC)c(OC)c(OC)c1", "values": [{"measurement": "IC50", "setting": "A549", "value": 6.79, "unit": "µg/mL"}, {"measurement": "IC50", "setting": "DU-145", "value": 5.84, "unit": "µg/mL"}, {"measurement": "IC50", "setting": "KB", "value": 5.9, "unit": "µg/mL"}, {"measurement": "IC50", "setting": "[1]", "value": 5.17, "unit": "µg/mL"}]}
{"smiles": "COc1cc2c(cc1OC)[C@@H](c1cc(OC)c(OC)c(OC)c1)[C@H](C(=O)N1CCCC1)C(/C=C/C(=O)c1ccc(C3CCCCC3)cc1)=C2", "values": [{"measurement": "IC50", "setting": "A549", "value": 12, "unit": "µg/mL"}, {"measurement": "IC50", "setting": "DU-145", "value": 12.8, "unit": "µg/mL"}, {"measurement": "IC50", "setting": "KB", "value": 12.3, "unit": "µg/mL"}, {"measurement": "IC50", "setting": "[1]", "value": 12.3, "unit": "µg/mL"}]}
{"smiles": "COc1cc2c(cc1OC)[C@@H](c1cc(OC)c(OC)c(OC)c1)[C@H](C(=O)N1CCCC1)C(/C=C/C(=O)c1ccc(-c3ccccc3)cc1)=C2", "values": [{"measurement": "IC50", "setting": "A549", "value": 24.6, "unit": "µg/mL"}, {"measurement": "IC50", "setting": "DU-145", "value": 15.5, "unit": "µg/mL"}, {"measurement": "IC50", "setting": "KB", "value": 16.6, "unit": "µg/mL"}, {"measurement": "IC50", "setting": "[1]", "value": 16.9, "unit": "µg/mL"}]}
{"smiles": "COc1cc([C@@H]2c3cc4c(cc3[C@@H](Nc3ccc([N+](=O)[O-])cc3)[C@H]3COC(=O)[C@H]23)OCO4)cc(OC)c1O", "values": [{"measurement": "IC50", "setting": "A549", "value": 0.113, "unit": "µg/mL"}, {"measurement": "IC50", "setting": "DU-145", "value": 0.8, "unit": "µg/mL"}, {"measurement": "IC50", "setting": "KB", "value": 0.819, "unit": "µg/mL"}, {"measurement": "IC50", "setting": "[1]", "value": 2.1, "unit": "µg/mL"}]}
